The text below walks through data of ChEMBL document CHEMBL5465560, “Selectivity Literature for EUbOPEN Chemogenomic Library” (2024).

The target in assay [1] is Death-associated protein kinase 1 (Homo sapiens, UniProt P53355). Nature of the assay: Selectivity interaction (ProQinase) EUB0000171b DAPK1.
Assay [2] addresses Phosphatidylinositol 4,5-bisphosphate 3-kinase catalytic subunit beta isoform (Homo sapiens) (UniProt P42338). Nature of the assay: Selectivity interaction (ProQinase) EUB0000171b PIK3CB.
For assay [3], the target named is G protein-coupled receptor kinase 4 (Homo sapiens) (UniProt P32298). Nature of the assay: Selectivity interaction (KinomeScan (DiscoverX)) EUB0001079a GRK4. The following applies: at 1 µM.
Sequence of G protein-coupled receptor kinase 4 (Homo sapiens) (P32298 whole entry, looked up): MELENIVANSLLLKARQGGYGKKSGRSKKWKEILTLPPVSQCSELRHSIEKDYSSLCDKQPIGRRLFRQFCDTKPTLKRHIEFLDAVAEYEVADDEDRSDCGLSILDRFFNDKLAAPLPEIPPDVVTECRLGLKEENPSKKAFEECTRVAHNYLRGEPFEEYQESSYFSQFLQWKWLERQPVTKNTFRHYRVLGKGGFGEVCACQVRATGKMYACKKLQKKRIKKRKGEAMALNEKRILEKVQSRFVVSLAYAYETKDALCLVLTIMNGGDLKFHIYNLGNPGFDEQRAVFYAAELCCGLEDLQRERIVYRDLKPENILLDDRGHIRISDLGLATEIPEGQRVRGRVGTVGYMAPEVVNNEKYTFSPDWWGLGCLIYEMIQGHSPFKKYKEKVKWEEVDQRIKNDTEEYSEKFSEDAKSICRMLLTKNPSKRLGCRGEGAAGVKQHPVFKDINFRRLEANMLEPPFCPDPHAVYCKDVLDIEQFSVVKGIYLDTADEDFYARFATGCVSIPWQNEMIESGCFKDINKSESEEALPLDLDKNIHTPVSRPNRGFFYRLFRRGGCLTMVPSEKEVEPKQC
Assay [4] concerns the target Casein kinase II subunit alpha (Homo sapiens, UniProt P68400). Nature of the assay: Selectivity interaction (KinomeScan (DiscoverX)) EUB0001049a CSNK2A1. The following applies: at 1 µM.
Assay [5] concerns the target Serine/threonine-protein kinase PRP4 homolog (Homo sapiens) (UniProt Q13523). Nature of the assay: Selectivity interaction (KinomeScan (DiscoverX)) EUB0000655a PRPF4. To be noted: at 10 µM.
Assay [6] concerns the target T1, Mitogen-activated protein kinase kinase kinase 12 (Homo sapiens) (UniProt Q12852).
T1 sequence (whole entry): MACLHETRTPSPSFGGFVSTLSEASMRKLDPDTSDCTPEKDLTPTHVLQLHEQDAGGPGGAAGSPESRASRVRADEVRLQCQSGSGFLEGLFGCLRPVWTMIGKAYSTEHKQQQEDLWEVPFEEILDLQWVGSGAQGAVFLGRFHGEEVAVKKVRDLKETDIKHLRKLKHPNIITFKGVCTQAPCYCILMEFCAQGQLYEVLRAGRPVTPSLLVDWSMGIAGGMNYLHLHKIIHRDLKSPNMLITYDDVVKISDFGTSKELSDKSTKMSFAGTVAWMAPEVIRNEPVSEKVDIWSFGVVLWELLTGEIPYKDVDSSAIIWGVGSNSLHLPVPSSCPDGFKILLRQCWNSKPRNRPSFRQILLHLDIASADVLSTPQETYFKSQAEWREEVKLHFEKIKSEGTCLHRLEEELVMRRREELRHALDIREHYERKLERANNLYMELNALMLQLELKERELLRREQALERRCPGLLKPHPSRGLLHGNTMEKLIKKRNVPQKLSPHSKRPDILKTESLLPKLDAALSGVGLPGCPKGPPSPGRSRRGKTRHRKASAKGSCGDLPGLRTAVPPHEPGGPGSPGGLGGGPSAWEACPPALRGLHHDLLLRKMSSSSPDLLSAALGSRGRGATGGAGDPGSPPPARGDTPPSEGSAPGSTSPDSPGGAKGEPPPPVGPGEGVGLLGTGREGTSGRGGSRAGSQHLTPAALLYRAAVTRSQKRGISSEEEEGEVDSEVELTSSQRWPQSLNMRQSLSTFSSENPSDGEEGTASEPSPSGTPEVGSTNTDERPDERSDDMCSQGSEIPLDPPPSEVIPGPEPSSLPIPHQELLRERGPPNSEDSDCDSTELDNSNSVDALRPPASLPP
In words: Selectivity interaction (KinomeScan (DiscoverX)) EUB0000045b MAP3K12.

The target of assay [7] is Insulin-like growth factor 1 receptor (Homo sapiens, UniProt P08069). Nature of the assay: Selectivity interaction (Kinase panel (Z-LYTE Assay)) EUB0001632a IGF1R. The following applies: at 10 µM.
Assay [8] deals with Tyrosine-protein kinase Lyn (Homo sapiens, UniProt P07948). Nature of the assay: Selectivity interaction (SelectScreen profiling (Invitrogen)) EUB0000607a LYN. The following applies: at 2 µM.
Sequence of Tyrosine-protein kinase Lyn (P07948 2-512 limits assumed): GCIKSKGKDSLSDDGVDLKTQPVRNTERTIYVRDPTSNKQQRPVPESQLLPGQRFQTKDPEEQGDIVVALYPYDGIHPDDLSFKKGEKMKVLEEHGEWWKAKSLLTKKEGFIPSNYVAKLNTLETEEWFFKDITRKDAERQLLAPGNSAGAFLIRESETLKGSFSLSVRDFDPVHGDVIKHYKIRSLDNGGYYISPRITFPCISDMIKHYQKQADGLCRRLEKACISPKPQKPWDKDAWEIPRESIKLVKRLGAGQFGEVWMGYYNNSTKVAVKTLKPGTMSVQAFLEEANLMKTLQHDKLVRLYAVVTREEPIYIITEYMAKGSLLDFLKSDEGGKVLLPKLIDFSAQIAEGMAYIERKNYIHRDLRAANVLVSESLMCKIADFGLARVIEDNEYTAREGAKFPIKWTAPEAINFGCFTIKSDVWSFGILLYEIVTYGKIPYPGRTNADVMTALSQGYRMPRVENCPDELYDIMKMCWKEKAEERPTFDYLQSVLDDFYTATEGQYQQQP
The target in assay [9] is T2, Mitogen-activated protein kinase kinase kinase 2 (Homo sapiens) (UniProt Q9Y2U5).
T2 sequence (whole entry): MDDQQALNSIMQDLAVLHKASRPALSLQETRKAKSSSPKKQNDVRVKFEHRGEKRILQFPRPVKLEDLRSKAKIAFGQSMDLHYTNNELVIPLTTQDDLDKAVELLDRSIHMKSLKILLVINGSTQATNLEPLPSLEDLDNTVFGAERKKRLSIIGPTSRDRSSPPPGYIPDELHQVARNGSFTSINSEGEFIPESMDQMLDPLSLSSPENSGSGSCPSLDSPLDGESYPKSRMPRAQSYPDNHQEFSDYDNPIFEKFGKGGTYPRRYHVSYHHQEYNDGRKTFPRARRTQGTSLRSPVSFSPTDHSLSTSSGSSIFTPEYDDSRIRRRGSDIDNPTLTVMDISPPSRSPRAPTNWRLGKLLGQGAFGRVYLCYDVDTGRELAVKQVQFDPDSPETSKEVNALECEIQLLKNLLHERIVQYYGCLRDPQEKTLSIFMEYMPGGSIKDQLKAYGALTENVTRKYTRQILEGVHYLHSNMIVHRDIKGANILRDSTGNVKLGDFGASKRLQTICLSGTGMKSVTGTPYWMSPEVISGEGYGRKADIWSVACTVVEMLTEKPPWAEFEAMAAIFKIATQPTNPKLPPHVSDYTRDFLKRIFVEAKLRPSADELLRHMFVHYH
In words: Selectivity interaction (KinomeScan (DiscoverX)) EUB0000229b MAP3K2. The following applies: at 10 µM.

Assay [10] addresses T3, Serine/threonine-protein kinase DCLK1 (Homo sapiens) (UniProt O15075).
T3 sequence (whole entry): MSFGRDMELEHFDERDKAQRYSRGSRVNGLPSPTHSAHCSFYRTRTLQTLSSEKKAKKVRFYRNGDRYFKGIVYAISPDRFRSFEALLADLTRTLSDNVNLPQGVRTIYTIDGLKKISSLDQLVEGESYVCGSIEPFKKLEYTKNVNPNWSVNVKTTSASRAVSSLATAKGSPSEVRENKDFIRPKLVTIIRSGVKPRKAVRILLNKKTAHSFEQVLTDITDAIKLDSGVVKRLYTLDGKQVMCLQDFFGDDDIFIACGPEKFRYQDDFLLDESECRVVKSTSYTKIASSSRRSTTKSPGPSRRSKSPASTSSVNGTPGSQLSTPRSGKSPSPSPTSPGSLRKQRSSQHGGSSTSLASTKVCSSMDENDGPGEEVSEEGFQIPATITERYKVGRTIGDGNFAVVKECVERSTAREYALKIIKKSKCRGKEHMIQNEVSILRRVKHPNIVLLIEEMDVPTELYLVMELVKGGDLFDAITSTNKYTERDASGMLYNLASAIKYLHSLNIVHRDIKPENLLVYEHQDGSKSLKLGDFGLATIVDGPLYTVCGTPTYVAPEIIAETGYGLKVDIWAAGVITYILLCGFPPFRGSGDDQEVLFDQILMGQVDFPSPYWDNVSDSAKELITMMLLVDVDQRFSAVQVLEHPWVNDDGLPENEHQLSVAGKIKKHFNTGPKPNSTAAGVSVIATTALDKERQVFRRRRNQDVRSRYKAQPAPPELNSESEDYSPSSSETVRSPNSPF
Nature of the assay: Selectivity interaction (KinomeScan (DiscoverX)) EUB0000229b DCLK1. The following applies: at 10 µM.

Sequence of Phosphatidylinositol 4,5-bisphosphate 3-kinase catalytic subunit beta isoform (Homo sapiens) (P42338 whole entry, looked up, canonical isoform): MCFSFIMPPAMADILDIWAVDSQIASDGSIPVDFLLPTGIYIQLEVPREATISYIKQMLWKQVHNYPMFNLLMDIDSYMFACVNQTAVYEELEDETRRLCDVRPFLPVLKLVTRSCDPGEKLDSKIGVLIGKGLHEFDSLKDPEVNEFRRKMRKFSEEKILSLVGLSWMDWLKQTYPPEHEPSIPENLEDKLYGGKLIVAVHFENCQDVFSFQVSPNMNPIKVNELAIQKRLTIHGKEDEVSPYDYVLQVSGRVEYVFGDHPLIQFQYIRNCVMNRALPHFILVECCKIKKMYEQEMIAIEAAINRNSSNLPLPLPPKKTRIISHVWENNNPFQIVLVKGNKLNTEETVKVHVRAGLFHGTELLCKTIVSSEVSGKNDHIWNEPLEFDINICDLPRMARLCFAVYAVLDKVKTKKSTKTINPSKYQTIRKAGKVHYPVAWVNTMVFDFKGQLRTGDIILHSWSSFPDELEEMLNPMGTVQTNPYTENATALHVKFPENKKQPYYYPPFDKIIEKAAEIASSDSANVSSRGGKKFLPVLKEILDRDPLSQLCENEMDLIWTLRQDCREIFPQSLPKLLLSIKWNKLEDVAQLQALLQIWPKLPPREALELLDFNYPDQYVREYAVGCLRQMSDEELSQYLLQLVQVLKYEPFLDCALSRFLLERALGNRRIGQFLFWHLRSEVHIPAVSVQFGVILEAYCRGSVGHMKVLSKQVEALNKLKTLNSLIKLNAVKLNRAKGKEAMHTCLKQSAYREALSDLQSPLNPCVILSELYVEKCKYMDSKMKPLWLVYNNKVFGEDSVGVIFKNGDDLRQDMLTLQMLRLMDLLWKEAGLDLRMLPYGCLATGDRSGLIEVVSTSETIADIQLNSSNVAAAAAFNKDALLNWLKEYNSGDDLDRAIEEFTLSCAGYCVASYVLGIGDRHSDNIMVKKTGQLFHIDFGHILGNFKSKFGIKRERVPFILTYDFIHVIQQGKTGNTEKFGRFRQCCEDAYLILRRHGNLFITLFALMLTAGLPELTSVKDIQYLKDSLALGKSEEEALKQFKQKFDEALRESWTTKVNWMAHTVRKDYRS
Sequence of Death-associated protein kinase 1 (P53355 whole entry, looked up, canonical isoform): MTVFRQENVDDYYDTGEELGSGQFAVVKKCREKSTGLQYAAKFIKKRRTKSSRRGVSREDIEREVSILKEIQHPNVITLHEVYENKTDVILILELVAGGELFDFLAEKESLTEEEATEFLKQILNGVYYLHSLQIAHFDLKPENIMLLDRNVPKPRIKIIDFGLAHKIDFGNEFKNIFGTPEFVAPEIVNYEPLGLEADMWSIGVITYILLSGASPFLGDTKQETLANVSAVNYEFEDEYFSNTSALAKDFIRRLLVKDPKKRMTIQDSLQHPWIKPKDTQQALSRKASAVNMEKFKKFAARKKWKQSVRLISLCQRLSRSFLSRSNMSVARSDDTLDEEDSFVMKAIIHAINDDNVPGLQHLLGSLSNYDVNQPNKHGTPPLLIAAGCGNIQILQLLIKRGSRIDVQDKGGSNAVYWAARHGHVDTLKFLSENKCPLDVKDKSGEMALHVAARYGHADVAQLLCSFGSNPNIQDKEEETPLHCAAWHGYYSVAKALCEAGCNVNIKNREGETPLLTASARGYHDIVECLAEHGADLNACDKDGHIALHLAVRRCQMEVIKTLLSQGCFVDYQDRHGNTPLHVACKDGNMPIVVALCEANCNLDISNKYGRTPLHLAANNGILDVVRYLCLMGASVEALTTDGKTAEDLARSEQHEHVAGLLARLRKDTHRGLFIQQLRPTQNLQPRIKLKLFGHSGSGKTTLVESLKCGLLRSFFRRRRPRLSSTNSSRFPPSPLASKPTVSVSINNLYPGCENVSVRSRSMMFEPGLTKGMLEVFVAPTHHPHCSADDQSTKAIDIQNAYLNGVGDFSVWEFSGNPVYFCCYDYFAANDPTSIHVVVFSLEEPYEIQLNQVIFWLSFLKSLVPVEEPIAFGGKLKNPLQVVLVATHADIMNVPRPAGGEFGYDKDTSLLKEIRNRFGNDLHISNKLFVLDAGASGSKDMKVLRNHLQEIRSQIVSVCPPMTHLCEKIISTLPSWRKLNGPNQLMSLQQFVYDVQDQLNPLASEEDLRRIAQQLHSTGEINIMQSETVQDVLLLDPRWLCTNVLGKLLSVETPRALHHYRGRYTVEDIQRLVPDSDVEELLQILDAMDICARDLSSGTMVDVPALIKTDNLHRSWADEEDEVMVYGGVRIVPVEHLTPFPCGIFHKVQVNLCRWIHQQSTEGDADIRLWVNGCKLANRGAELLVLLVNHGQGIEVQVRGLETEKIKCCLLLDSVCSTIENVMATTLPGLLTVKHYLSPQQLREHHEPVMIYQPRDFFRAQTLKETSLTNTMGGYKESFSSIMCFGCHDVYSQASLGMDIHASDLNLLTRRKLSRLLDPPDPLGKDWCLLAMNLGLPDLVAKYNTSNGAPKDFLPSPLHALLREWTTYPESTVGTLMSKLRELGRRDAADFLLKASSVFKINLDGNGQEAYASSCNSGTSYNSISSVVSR
Sequence of Serine/threonine-protein kinase PRP4 homolog (Homo sapiens) (Q13523 whole entry): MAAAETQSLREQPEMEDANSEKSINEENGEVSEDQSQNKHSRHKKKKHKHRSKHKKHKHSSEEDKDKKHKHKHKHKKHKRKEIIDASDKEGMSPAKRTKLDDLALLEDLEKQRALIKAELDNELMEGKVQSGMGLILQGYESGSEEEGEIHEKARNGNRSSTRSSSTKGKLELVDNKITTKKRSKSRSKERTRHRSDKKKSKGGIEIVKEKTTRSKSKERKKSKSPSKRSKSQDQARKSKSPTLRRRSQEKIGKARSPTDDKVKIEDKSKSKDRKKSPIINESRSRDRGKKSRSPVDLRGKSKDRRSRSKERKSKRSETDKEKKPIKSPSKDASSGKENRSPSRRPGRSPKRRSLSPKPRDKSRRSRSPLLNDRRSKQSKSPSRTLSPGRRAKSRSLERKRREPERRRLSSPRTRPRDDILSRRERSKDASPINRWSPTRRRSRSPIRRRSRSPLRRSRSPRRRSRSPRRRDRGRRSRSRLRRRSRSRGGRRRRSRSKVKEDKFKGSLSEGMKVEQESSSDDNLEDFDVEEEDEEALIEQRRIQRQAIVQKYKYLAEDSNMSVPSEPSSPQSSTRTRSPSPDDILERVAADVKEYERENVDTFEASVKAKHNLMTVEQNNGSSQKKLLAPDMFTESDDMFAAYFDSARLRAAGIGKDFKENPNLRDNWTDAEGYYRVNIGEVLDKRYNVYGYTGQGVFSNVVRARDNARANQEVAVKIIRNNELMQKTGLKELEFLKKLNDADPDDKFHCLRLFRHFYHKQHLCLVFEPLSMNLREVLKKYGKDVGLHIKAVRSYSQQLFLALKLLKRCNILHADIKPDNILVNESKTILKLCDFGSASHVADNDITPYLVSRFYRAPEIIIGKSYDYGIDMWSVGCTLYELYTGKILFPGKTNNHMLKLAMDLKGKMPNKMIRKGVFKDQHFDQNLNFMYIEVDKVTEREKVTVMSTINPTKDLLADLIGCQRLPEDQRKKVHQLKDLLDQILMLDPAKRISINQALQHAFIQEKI
Sequence of Casein kinase II subunit alpha (P68400 whole entry, looked up): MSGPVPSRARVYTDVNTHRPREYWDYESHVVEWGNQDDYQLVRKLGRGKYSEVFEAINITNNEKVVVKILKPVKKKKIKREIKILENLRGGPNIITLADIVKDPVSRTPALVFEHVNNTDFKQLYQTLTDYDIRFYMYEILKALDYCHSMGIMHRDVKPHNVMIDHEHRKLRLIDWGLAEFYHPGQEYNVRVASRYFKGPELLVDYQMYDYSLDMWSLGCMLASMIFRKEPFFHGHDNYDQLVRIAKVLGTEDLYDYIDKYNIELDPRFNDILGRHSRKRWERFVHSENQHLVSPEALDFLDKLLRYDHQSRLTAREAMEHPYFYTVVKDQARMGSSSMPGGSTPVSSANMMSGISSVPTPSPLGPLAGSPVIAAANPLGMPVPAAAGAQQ

As for `C=CC(=O)Nc1cccc(C(=O)Nc2ccc(Nc3cc(-c4[nH]c(SC)nc4C)ccn3)cc2)c1`, the % of control came to 100% in [1] (at 1 µM), 94% in assay [1] (at 5 µM), 138% in assay [2] (at 1 µM) and 166% in assay [2] (at 5 µM).
The compound `Nc1cnc(N2CCc3cc(S(=O)(=O)Nc4c(F)cc(Cl)cc4F)cc(N4CCCC4=O)c32)nc1` [TP-020n] yielded a % of control in assay [3] of 100%.
Take `COc1cc(Nc2nc(C)cc(-c3cnn4nc(OC)ccc34)n2)cc(C(F)(F)F)c1`: in assay [4], the % of control amounted to 83%.
`CN(C)CCOc1ccc(-c2nc(-c3ccncc3)c(-c3ccc4c(c3)CC/C4=N\O)[nH]2)cc1` registered a % of control in assay [5] of 84%.
For `C=CC(=O)Nc1cc(-n2c(=O)ccc3cnc4ccc(-c5ccc(NS(C)(=O)=O)cc5)cc4c32)ccc1C`, the % of control in [6] (at 1 µM) was 70%; in assay [6] (at 10 µM) it was 59%.
The compound `Cn1cc(-n2cnc3c(NCc4nc5cc(Cl)c(Cl)cc5[nH]4)nc(N4CCOCC4)nc32)cn1` had a % of control in assay [7] of 3.73%.
In turn, `CNC(=O)Nc1ccc(-c2nc(N3CC4CCC(C3)O4)c3cnn(C4CCC5(CC4)OCCO5)c3n2)cc1` registered a % of inhibition in assay [8] of 7%.
Take `COc1cc(N(C)c2ccnc3ccc(C(F)(F)F)cc23)cc(OC)c1OC`: the % binding in [9] was 52%; in assay [10] it was 73%.
